Measured values as given in publication PMC10957983, “The binding and mechanism of a positive allosteric modulator of Kv3 channels” (Nature Communications, 2024).

Key:
Kv3.2 = biological target: T1, Kv3.2 (Homo sapiens, UniProt Q96PR1); experiment: TEVC in Xenopus oocytes, concentration dependence of ΔV0.[…]; type: cell-based
T1 construct: gene KCNC2
T1 sequence (Q96PR1 1-638): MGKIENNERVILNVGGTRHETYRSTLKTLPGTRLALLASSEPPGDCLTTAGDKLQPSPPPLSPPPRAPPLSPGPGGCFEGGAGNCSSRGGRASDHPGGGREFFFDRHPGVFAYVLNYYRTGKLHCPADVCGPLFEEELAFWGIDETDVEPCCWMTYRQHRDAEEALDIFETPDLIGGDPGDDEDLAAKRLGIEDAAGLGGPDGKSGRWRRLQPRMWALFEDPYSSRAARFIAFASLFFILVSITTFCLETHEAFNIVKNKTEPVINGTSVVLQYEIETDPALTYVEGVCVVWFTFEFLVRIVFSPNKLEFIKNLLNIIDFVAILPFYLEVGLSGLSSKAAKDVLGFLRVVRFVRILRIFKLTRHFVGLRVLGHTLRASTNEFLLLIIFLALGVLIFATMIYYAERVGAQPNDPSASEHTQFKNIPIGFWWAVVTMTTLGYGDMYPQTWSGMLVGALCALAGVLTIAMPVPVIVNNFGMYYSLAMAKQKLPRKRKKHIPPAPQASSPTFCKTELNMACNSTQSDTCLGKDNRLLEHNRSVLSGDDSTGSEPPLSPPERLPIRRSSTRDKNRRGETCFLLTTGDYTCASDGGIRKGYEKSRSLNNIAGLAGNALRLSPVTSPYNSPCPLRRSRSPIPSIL

Kv3.1 = biological target: T2, Kv3.1 (Homo sapiens, UniProt P48547); experiment: cryo-EM structure of the complex ([…] Å); supported by TEVC of Kv3.[…] and binding-site mutants
T2 construct: gene KCNC1; Full-length human Kv3.1 (isoform A)
T2 sequence (P48547 1-511): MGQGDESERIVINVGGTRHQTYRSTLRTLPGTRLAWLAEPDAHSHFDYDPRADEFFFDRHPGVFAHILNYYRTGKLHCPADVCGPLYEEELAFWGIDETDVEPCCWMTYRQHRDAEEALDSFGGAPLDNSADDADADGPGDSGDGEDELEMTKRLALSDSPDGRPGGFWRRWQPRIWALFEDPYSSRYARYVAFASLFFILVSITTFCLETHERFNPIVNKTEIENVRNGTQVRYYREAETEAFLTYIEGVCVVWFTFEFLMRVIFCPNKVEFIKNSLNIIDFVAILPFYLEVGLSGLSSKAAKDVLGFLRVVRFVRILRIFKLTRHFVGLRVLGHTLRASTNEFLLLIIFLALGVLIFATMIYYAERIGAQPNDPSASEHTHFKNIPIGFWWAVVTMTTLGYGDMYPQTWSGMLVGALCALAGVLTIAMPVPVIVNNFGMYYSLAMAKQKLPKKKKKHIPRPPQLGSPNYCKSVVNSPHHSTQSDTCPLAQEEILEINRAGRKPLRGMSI

EC50 (Kv3.2): 3.2 µM
Structure (SMILES): CC[C@H]1NC(=O)N(c2ccc(Oc3cccc4c3C3(CC3)CO4)nc2)C1=O [AUT5, (5 R)-5-ethyl-3-[6-(spiro[1-benzofuran-3,1’-cyclopropan]-4-yloxy)-3-pyridinyl]-2,4-imidazolidinedione]
cryo-EM structure of the complex (2.5 Å); supported by TEVC of Kv3.1 and binding (Kv3.1): A non-protein in the electron density map consistent with AUT5 is found in a cavity between S4 and S5 helices
